Data on ten compounds can be found in patent publication US20250236616A1, “IMMUNOMODULATING AZALIDES” (Zoetis Services LLC, priority 2021, published 2025).

Read-outs that look alike come from different tables or passages of the source. Marks after values point to notes of the source that are not given here. Some results are limits rather than exact numbers.

Holding throughout (type): cell-based
Test [1] has as its system BRD pathogens, M. haemolytica and P. multocida. The test is described as follows: MIC screening panel, BRD pathogens (CLSI broth micro-dilution). The source says:
Primary screening of the compounds of the invention included the evaluation of antibacterial activity of analogs through determination of microbial inhibition concentration (MIC) as per CLSI guidelines. The screening panel included the relevant BRD pathogens: 1) M. haemolytica (e.g., 12726, 46571 and 49023, all AHDRCC; and 33396 (ATCC)); and 2) P. multocida (e.g., 34135 and 46572 (both AHDRCC) and 43137 (ATCC)). In some instances, H. somni (A700025K) pathogens were also included in the screening panel. The AHDRCC strains originated from the Zoetis BRD/SRD surveillance program and refer to the Animal Health Development and Research Culture Collection. In addition, the screen assessed S. aureus (29213 ATCC) as a representative Gram-positive isolate, E.faecalis (19433 ATCC) as a commensal gram-positive gastrointestinal bacterium and E. coli (100, 3110 and 25922 (ATCC)) for the evaluation of efflux potential. The screening panel BRD pathogens were assessed in determining antibacterial activity of the Formula (1) compounds.
All relevant BRD pathogens were initially screened at a top concentration of 64 μg/mL of a Formula (1) compound in an eleven-point dilution series. […] If an Example was purified further, the MICs moved […] essentially two dilutions across all strains tested in the screening panel.
In-Vitro MIC Model Compounds were analyzed for antibacterial activity against a panel of animal health specific gram-positive and gram-negative clinical strains by diluting compounds in DMSO to an appropriate stock concentration to determine the Minimal Inhibitory Concentration (MIC) via a semi-automated broth micro-dilution method (CLSI reference method) with QC strains and anti-microbial agent(s). Specifically, bacteria were grown overnight on TSA w/5% sheep blood agar plates and diluted in saline buffer to a McFarland Standard 0.5, then further diluted in cation-ion adjusted Mueller Hinton Broth to a final concentration of approximately 5×10^5 CFU/mL. 100 μL of inoculated media was added to 96-well plate(s) with 3 μL of serially diluted compound in each row. Depending on strain (see CLSI reference method), bacteria were incubated 18-22 hours at 35-37° C. in ambient air, with 5% CO2 or anaerobically (up to 48 hours).

Another test has as its system TNF-α. Description: Whole bovine blood assay, LPS-induced TNF-α. The conditions noted are these: fresh whole bovine blood, LPS stimulant, top drug concentration 250 μM. An outline of the steps: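 Fresh heparinized bovine whole blood was preincubated with compound 4 h at 37 °C, then stimulated with LPS (final 1 μg/mL) for 18 h at 37 °C. Plasma TNF-α was quantified by MSD U-Plex chemiluminescent immunoassay, normalized to total protein (BCA), and IC50 taken for LPS-induced TNF-α inhibition.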

A further test has as its system IL-6. Description: Whole bovine blood assay, LPS-induced IL-6. The conditions noted are these: fresh whole bovine blood, LPS stimulant, top drug concentration 250 μM.
[2] abbreviates: Table B, at least one BRD pathogenic strain, top concentration 64 μg/mL, read-out: MIC flag (*) for BRD pathogenic strains.
Where [3] appears, read: Table B, at least one BRD pathogenic strain, top concentration 64 μg/mL.
[4] abbreviates: Table C, at least one BRD pathogenic strain, top concentration 64 μg/mL.

By IC50 is commonly meant the concentration that inhibits the measured activity by half. In the case of `CC[C@H]1OC(=O)[C@H](C)[C@@H](O[C@H]2C[C@@](C)(OC)[C@](O)(CSc3ccccc3)[C@H](C)O2)[C@H](C)[C@@H](O[C@@H]2O[C@H](C)C[C@H](N(C)S(=O)(=O)c3ccc(Cl)cc3)[C@H]2O)[C@](C)(O)C[C@@H](C)CN[C@H](C)[C@@H](O)[C@]1(C)O` [Example A3-1, 4-chloro-N-((2S,3R,4S,6R)-2-(((2R,3S,4R,5R,8R,10R,11R,12S,13S,14R)-2-ethyl-3,4, 10-trihydroxy-13-(((2R,4R,5S,6S)-5-hydroxy-4-methoxy-4,6-dimethyl-5-((phenylthio)methyl)tetrahydro-2H-pyran-2-yl)oxy)-3,5,8, 10, 12, 14-hexamethyl-15-oxo-1-oxa-6-azacyclopentadecan-11-yl)oxy)-3-hydroxy-6-methyltetrahydro-2H-pyran-4-yl)-N-methylbenzenesulfonamide], the MIC in test [1] (BRD pathogens M. haemolytica and P. multocida, read-out: antibacterial / non-antibacterial (MIC class)) was > 64 µg/mL. For the same compound, the IC50 in the test on TNF-α (Bos taurus) came out at 27 µM; with IL-6 (Bos taurus) it was 31 µM.
Regarding `CCCNC[C@]1(O)[C@H](C)O[C@@H](O[C@H]2[C@H](C)[C@@H](O[C@@H]3O[C@H](C)C[C@H](N(C)S(=O)(=O)c4ccc([N+](=O)[O-])cc4)[C@H]3O)[C@](C)(O)C[C@@H](C)CN[C@H](C)[C@@H](O)[C@](C)(O)[C@@H](CC)OC(=O)[C@@H]2C)C[C@@]1(C)OC` [Example B-2, N-((2S,3R,4S,6R)-2-(((2R,3S,4R,5R,8R,10R,11R,12S,13S,14R)-2-ethyl-3,4,10-trihydroxy-13-(((2R,4R,5S,6S)-5-hydroxy-4-methoxy-4,6-dimethyl-5-((propylamino)methyl)tetrahydro-2H-pyran-2-yl)oxy)-3,5,8,10, 12,14-hexamethyl-15-oxo-1-oxa-6-azacyclopentadecan-11-yl)oxy)-3-hydroxy-6-methyltetrahydro-2H-pyran-4-yl)-N-methyl-4-nitrobenzenesulfonamide], the MIC in test [1] (setting [2]) is ≤ 64 µg/mL. Also, the results for the IC50 with TNF-α (Bos taurus) and with IL-6 (Bos taurus) were 37 µM and 46 µM, respectively.
Take `CC[C@H]1OC(=O)[C@H](C)[C@@H](O[C@H]2C[C@@](C)(OC)[C@](O)(CNC3CC3)[C@H](C)O2)[C@H](C)[C@@H](O[C@@H]2O[C@H](C)C[C@H](N(C)S(=O)(=O)c3ccc(Cl)cc3)[C@H]2O)[C@](C)(O)C[C@@H](C)CN[C@H](C)[C@@H](O)[C@]1(C)O` [Example B-23, 4-chloro-N-((2S,3R,4S,6R)-2-(((2R,3S,4R,5R,8R,10R,11R,12S,13S, 14R)-13-(((2R,4R,5S,6S)-5-((cyclopropylamino)methyl)-5-hydroxy-4-methoxy-4,6-dimethyltetrahydro-2H-pyran-2-yl)oxy)-2-ethyl-3,4, 10-trihydroxy-3,5,8, 10, 12,14-hexamethyl-15-oxo-1-oxa-6-azacyclopentadecan-11-yl)oxy)-3-hydroxy-6-methyltetrahydro-2H-pyran-4-yl)-N-methylbenzenesulfonamide]: the MIC in test [1] (setting [2]) was ≤ 64 µg/mL. The IC50 stood at 3 µM in the test with TNF-α (Bos taurus) and 13 µM with IL-6 (Bos taurus).
In the case of `CC[C@H]1OC(=O)[C@H](C)[C@@H](O[C@H]2C[C@@](C)(OC)[C@](O)(CNCCc3ccc(C(F)(F)F)cc3)[C@H](C)O2)[C@H](C)[C@@H](O[C@@H]2O[C@H](C)C[C@H](N(C)S(=O)(=O)c3ccc(Cl)cc3)[C@H]2O)[C@](C)(O)C[C@@H](C)CN[C@H](C)[C@@H](O)[C@]1(C)O` [Example B-31, 4-chloro-N-((2S,3R,4S,6R)-2-(((2R,3S,4R,5R,8R,10R,11R, 12S, 13S, 14R)-2-ethyl-3,4,10-trihydroxy-13-(((2R,4R,5S,6S)-5-hydroxy-4-methoxy-4,6-dimethyl-5-(((4-(trifluoromethyl)phenethyl)amino)methyl)tetrahydro-2H-pyran-2-yl)oxy)-3,5,8,10, 12,14-hexamethyl-15-oxo-1-oxa-6-azacyclopentadecan-11-yl)oxy)-3-hydroxy-6-methyltetrahydro-2H-pyran-4-yl)-N-methylbenzenesulfonamide], in test [1] (setting [2]), the MIC was ≤ 64 µg/mL. For the same compound, the values for the IC50 with TNF-α (Bos taurus) and with IL-6 (Bos taurus) were 4 µM and 7 µM, respectively.
On to `CC[C@H]1OC(=O)[C@H](C)[C@@H](O[C@H]2C[C@@](C)(OC)[C@](O)(CNCCc3ccc(C(F)(F)F)cc3)[C@H](C)O2)[C@H](C)[C@@H](O[C@@H]2O[C@H](C)C[C@H](N(C)S(=O)(=O)Nc3ccc(C(F)(F)F)cc3)[C@H]2O)[C@](C)(O)C[C@@H](C)CN[C@H](C)[C@@H](O)[C@]1(C)O` [Example B-79], for which the “MIC flag (*) for BRD pathogenic strains” value in test [1] (setting [3]) was “B79* (MIC ≤64 μg/mL for at least one BRD pathogenic strain)”. Further, the 50% inhibitory concentration (IC50) in the test on TNF-α and with IL-6 was 7 µM each time.
Turning to `CCCNC[C@]1(O)[C@H](C)OC(O[C@H]2[C@H](C)[C@@H](O[C@@H]3O[C@H](C)C[C@H](N(C)S(=O)(=O)c4ccc(-c5cnco5)s4)[C@H]3Oc3ccc(OC)cc3)[C@](C)(O)C[C@@H](C)CN[C@H](C)[C@@H](O)[C@](C)(O)[C@@H](CC)OC(=O)[C@@H]2C)C[C@@]1(C)OC` (stereo partly drawn) [Example B-120, N-[(2S,3R,4S,6R)-2-[[(2R,3S,4R,5R,8R,10R,11R,12S,13S, 14R)-2-ethyl-3,4,10-trihydroxy-13-[(4R,5S,6S)-5-hydroxy-4-methoxy-4,6-dimethyl-5-(propylaminomethyl)oxan-2-yl]oxy-3,5,8, 10, 12, 14-hexamethyl-15-oxo-1-oxa-6-azacyclopentadec-11-yl]oxy]-3-(4-methoxyphenoxy)-6-methyloxan-4-yl]-N-methyl-5-(1,3-oxazol-5-yl)thiophene-2-sulfonamide], the MIC in test [1] (setting [2]) is ≤ 64 µg/mL. This compound returned a half-maximal inhibitory concentration (IC50) in the test with IL-6 (Bos taurus) of 6 µM.
Take “(2R,3S,4R,5R,8R,10R,11R,12S, 13S, 14R)-2-ethyl-3,4, 10-trihydroxy-13-[(2R,4R,5S,6S)-5-hydroxy-4-methoxy-4,6-dimethyl-5-(piperidin-1-ylmethyl) oxan-2-yl]oxy-11-[(2R,3S,4R,6S)-3-hydroxy-4-[(4-methoxyphenyl) sulfamoyl-methylamino]-6-methyloxan-2-yl]oxy-3,5,8,10, 12,14-hexamethyl-15-oxo-1-oxa-6-azacyclopentadecane [Example C-27]”: in test [1] (setting [4]), the “MIC flag (*) for BRD pathogenic strains” value is “C-27* (MIC ≤64 μg/mL for at least one BRD pathogenic strain)”. The IC50 was found to be 73 µM with TNF-α and 72 µM in the test with IL-6.
In the case of “(2R,3S,4R,5R,8R,10R,11R, 12S, 13S, 14R)-2-ethyl-3,4, 10-trihydroxy-13-[(2R,4R,5S,6S)-5-hydroxy-4-methoxy-4,6-dimethyl-5-(piperidin-1-ylmethyl) oxan-2-yl]oxy-11-[(2R,3S,4R,6S)-3-hydroxy-6-methyl-4-[methyl-[(3-methylphenyl) sulfamoyl]-amino]oxan-2-yl]oxy-3,5,8, 10, 12,14-hexamethyl-15-oxo-1-oxa-6-azacyclopentadecane [Example C-26]”, the “MIC flag (*) for BRD pathogenic strains” value in test [1] (setting [4]) was “C-26* (MIC ≤64 μg/mL for at least one BRD pathogenic strain)”. In addition, the IC50 amounted to 16 µM in the test on TNF-α and 25 µM in the test with IL-6.
Turning to “(2R,3S,4R,5R,8R,10R,11R, 12S, 13S, 14R)-11-[(2R,3S,4R,6S)-4-[[3-(dimethylamino)phenyl]sulfamoyl-methylamino]-3-hydroxy-6-methyloxan-2-yl]oxy-2-ethyl-3,4,10-trihydroxy-13-[(2R,4R,5S,6S)-5-hydroxy-4-methoxy-4,6-dimethyl-5-(piperidin-1-ylmethyl) oxan-2-yl]oxy-3,5,8,10, 12, 14-hexamethyl-15-oxo-1-oxa-6-azacyclopentadecane [Example C-25]”, the “MIC flag (*) for BRD pathogenic strains” value in test [1] (setting [4]) is reported as “C-25* (MIC ≤64 μg/mL for at least one BRD pathogenic strain)”. Moreover, the IC50 in the test on TNF-α came out at 37 µM.
As to “N-((2S,3R,4S,6R)-2-(((2R,3S,4R,5R,8R,10R,11R,12S,13S,14R)-2-ethyl-3,4,10-trihydroxy-13-(((2R,4R,5S,6S)-5-hydroxy-4-methoxy-4,6-dimethyl-5-((propylamino)methyl)tetrahydro-2H-pyran-2-yl)oxy)-3,5,6,8,10,12,14-heptamethyl-15-oxo-1-oxa-6-azacyclopentadecan-11-yl)oxy)-3-(4-fluorophenoxy)-6-methyltetrahydro-2H-pyran-4-yl)-N, 1-dimethyl-1H-imidazole-2-sulfonamide [Example B-162]”, in test [1] (setting [3]), the “MIC flag (*) for BRD pathogenic strains” value is recorded as “B-162* (MIC ≤64 μg/mL for at least one BRD pathogenic strain)”. For the same compound, the 50% inhibitory concentration (IC50) in the test on TNF-α stood at 8 µM; with IL-6, 9 µM.
